Measured values taken from patent US4705777A, “Cationic oligopeptides having microbicidal activity” (priority 1985, dated 1987).

Legend:
VSV = type: cell-based, Vesicular stomatitis virus; conditions: 10 IU/ml, human GM 2504 fibroblast cell line
HSV-1 = experiment: Virus yield reduction, HSV-1; type: cell-based, Herpes simplex, Type 1; conditions: 100 IU/ml, human GM 2504 fibroblast cell line
[1] = test system: Staphylococcus aureus 502A; experiment: Antibacterial activity of rabbit granulocyte peptides (Table III), S. aureus 502A; type: cell-based; conditions: 50 μg/ml, 20 min, 37° C., 10 mM sodium phosphate buffer pH 7.4
Method: (§1) The procedure parallels that reported in Lehrer et al., Infection and Immunity (1983) 42:10-14. […] The subculture was grown at 37° C. for 4 h with shaking to provide mid-logarithmic phase organisms that were washed twice with buffer by centrifugation (2000×g, 10 min), and then quantitated spectrophotometrically at 620 nm, with reference to previously established CFU/Optical Density relationships. Bacteria were suspended and experiments were performed in 10 mM sodium phosphate buffer, pH 7.4. In some experiments, buffers were supplemented with 0.14 M NaCl ("high" ionic strength). […] In some experiments, 10 mM phosphate buffer with a pH of 5.8 and conductivity of 1.36 mMHO was used. Peptide "stock solutions" were prepared at 500 μg/ml (microbiuret assay) in 0.01% acetic acid, and stored at -20° C. Typically, incubation mixtures contained 1×10^5 bacterial CFU and 5 μg of peptide in 100 μl of buffer. After incubation for 20 min at 37° C., 900 μl of the same buffer was added, and two additional serial tenfold dilutions were made with that buffer. Duplicate 100 μl aliquots from the three serial dilutions were spread over appropriate nutrient agar plates and incubated for 24-72 h to insure full colony development. Killing of microorganisms was expressed as the logarithm10 No /N, where No represented the initial colony count and N represented the colony count after incubation with peptide. There was no significant alteration in colony count when any of the test organisms were exposed to peptide-free buffer for 20 min.

[2] = test system: Staphylococcus epidermidis UCLA-622; experiment: Antibacterial activity of rabbit granulocyte peptides (Table III), S. epidermidis; type: cell-based; conditions: 50 μg/ml, 20 min, 37° C., 10 mM sodium phosphate buffer pH 7.4
Method: as §1

[3] = test system: Streptococcus pneumoniae Type III; experiment: Antibacterial activity of rabbit granulocyte peptides (Table III), S. pneumoniae; type: cell-based; conditions: 50 μg/ml, 20 min, 37° C., 10 mM sodium phosphate buffer pH 7.4
Method: as §1

[4] = test system: Staphylococcus aureus J.F.; experiment: Antibacterial activity of rabbit granulocyte peptides (Table III), S. aureus J.F.; type: cell-based; conditions: 50 μg/ml, 20 min, 37° C., 10 mM sodium phosphate buffer pH 7.4
Method: as §1

Ps. aeruginosa = experiment: Antibacterial action, % killing (Table II), Ps. aeruginosa; type: cell-based, Pseudomonas aeruginosa; conditions: 50 μg/ml peptide, 10^7 bacterial cells/ml, 20 min, 37°
Method: (§2) To test antibacterial action of the polypeptides, the following protocol was employed. Various species at 10^7 bacterial cells/ml are incubated for 20 min at 37° with 50 μg/ml of the candidate peptide. Colony counts (viable organisms) are made at the outset of the incubation--beforeaddition of the candidate peptide--and after 20 min of incubation with the candidate peptide.

[5] = test system: Listeria monocytogenes 450; experiment: Antibacterial activity of rabbit granulocyte peptides (Table III), L. monocytogenes; type: cell-based; conditions: 50 μg/ml, 20 min; for Bactericidal activity log10 No /N, Listeria monocytogenes 450, pH 5.8: 10 mM phosphate buffer pH 5.8; for Bactericidal activity log10 No /N, Listeria monocytogenes 450: 37° C., 10 mM sodium phosphate buffer pH 7.4; for Bactericidal activity log10 No /N, Listeria monocytogenes 450, "High" ionic strength: buffer pH 7.4 supplemented with 0.14 M NaCl
Method: as §1

[6] = test system: Streptococcus agalactiae Type-I-A; experiment: Antibacterial activity of rabbit granulocyte peptides (Table III), S. agalactiae Type-I-A; type: cell-based; conditions: 50 μg/ml, 20 min; for Bactericidal activity log10 No /N, Streptococcus agalactiae Type 1A, pH 5.8: 10 mM phosphate buffer pH 5.8; for Bactericidal activity log10 No /N, Streptococcus agalactiae Type-I-A: 37° C., 10 mM sodium phosphate buffer pH 7.4; for Bactericidal activity log10 No /N, Streptococcus agalactiae Type 1A, "High" ionic strength: buffer pH 7.4 supplemented with 0.14 M NaCl
Method: as §1

[7] = test system: Streptococcus agalactiae Type IIIU; experiment: Antibacterial activity of rabbit granulocyte peptides (Table III), S. agalactiae Type IIIU; type: cell-based; conditions: 50 μg/ml, 20 min, 37° C., 10 mM sodium phosphate buffer pH 7.4
Method: as §1

S. albus = experiment: Antibacterial action, % killing (Table II), S. albus; type: cell-based, Staphylococcus albus; conditions: 50 μg/ml peptide, 10^7 bacterial cells/ml, 20 min, 37°
Method: as §2

H. influenzae = experiment: Antibacterial action, % killing (Table II), H. influenzae; type: cell-based, Haemophilus influenzae; conditions: 50 μg/ml peptide, 10^7 bacterial cells/ml, 20 min, 37°
Method: as §2

[8] = test system: Hemophilus influenzae Type 3A; experiment: Antibacterial activity of rabbit granulocyte peptides (Table III), H. influenzae; type: cell-based; conditions: 50 μg/ml, 20 min, 37° C., 10 mM sodium phosphate buffer pH 7.4
Method: as §1

[9] = test system: Klebsiella pneumoniae ATCC 13883; experiment: Antibacterial activity of rabbit granulocyte peptides (Table III), K. pneumoniae; type: cell-based; conditions: 50 μg/ml, 20 min; for Bactericidal activity log10 No /N, Klebsiella pneumoniae ATCC 13883, pH 5.8: 10 mM phosphate buffer pH 5.8; for Bactericidal activity log10 No /N, Klebsiella pneumoniae ATCC 13883: 37° C., 10 mM sodium phosphate buffer pH 7.4; for Bactericidal activity log10 No /N, Klebsiella pneumoniae ATCC 13883, "High" ionic strength: buffer pH 7.4 supplemented with 0.14 M NaCl
Method: as §1

S. aureus 502A = experiment: Antibacterial action, % killing (Table II), S. aureus 502A; type: cell-based, Staphylococcus aureus; conditions: 50 μg/ml peptide, 10^7 bacterial cells/ml, 20 min, 37°
Method: as §2

E. coli = experiment: Antibacterial action, % killing (Table II), E. coli; type: cell-based, Escherichia coli; conditions: 50 μg/ml peptide, 10^7 bacterial cells/ml, 20 min, 37°
Method: as §2

[10] = test system: Escherichia coli ATCC 29648; experiment: Antibacterial activity of rabbit granulocyte peptides (Table III), E. coli; type: cell-based; conditions: 50 μg/ml, 20 min, 37° C., 10 mM sodium phosphate buffer pH 7.4
Method: as §1

L. monocytogenes = experiment: Antibacterial action, % killing (Table II), L. monocytogenes; type: cell-based, Listeria monocytogenes; conditions: 50 μg/ml peptide, 10^7 bacterial cells/ml, 20 min, 37°
Method: as §2

[11] = test system: Pseudomonas aeruginosa PAO 579; experiment: Antibacterial activity of rabbit granulocyte peptides (Table III), P. aeruginosa; type: cell-based; conditions: 50 μg/ml, 20 min; for Bactericidal activity log10 No /N, Pseudomonas aeruginosa PAO 579, pH 5.8: 10 mM phosphate buffer pH 5.8; for Bactericidal activity log10 No /N, Pseudomonas aeruginosa PAO 579: 37° C., 10 mM sodium phosphate buffer pH 7.4; for Bactericidal activity log10 No /N, Pseudomonas aeruginosa PAO 579, "High" ionic strength: buffer pH 7.4 supplemented with 0.14 M NaCl
Method: as §1

[12] = test system: Bordetella bronchiseptica UCLA-342; experiment: Antibacterial activity of rabbit granulocyte peptides (Table III), B. bronchiseptica; type: cell-based; conditions: 50 μg/ml, 20 min, 37° C., 10 mM sodium phosphate buffer pH 7.4
Method: as §1

Serratia marcescens = experiment: Antibacterial activity of rabbit granulocyte peptides (Table III), S. marcescens; type: cell-based; conditions: 50 μg/ml, 20 min, 37° C., 10 mM sodium phosphate buffer pH 7.4
Method: as §1

[13] = test system: Staphylococcus aureus 566; experiment: Antibacterial activity of rabbit granulocyte peptides (Table III), S. aureus 566; type: cell-based; conditions: 50 μg/ml, 20 min, 37° C., 10 mM sodium phosphate buffer pH 7.4
Method: as §1

S. marscescens = experiment: Antibacterial action, % killing (Table II), S. marscescens; type: cell-based, Serratia marscescens; conditions: 50 μg/ml peptide, 10^7 bacterial cells/ml, 20 min, 37°
Method: as §2

| Substance | Bactericidal activity log10 No /N, Staphylococcus aureus 502A [1] [log10] | Bactericidal activity log10 No /N, Staphylococcus epidermidis UCLA-622 [2] [log10] | Bactericidal activity log10 No /N, Streptococcus pneumoniae Type III [3] [log10] | Bactericidal activity log10 No /N, Staphylococcus aureus J.F. [4] [log10] | Bactericidal activity log10 No /N, Listeria monocytogenes 450, pH 5.8 [5] [log10] | Bactericidal activity log10 No /N, Listeria monocytogenes 450 [5] [log10] | Bactericidal activity log10 No /N, Listeria monocytogenes 450, "High" ionic strength [5] [log10] | Bactericidal activity log10 No /N, Streptococcus agalactiae Type 1A, pH 5.8 [6] [log10] | Bactericidal activity log10 No /N, Streptococcus agalactiae Type-I-A [6] [log10] | Bactericidal activity log10 No /N, Streptococcus agalactiae Type 1A, "High" ionic strength [6] [log10] | Bactericidal activity log10 No /N, Streptococcus agalactiae Type IIIU [7] [log10] | Bactericidal activity log10 No /N, Hemophilus influenzae Type 3A [8] [log10] | Bactericidal activity log10 No /N, Klebsiella pneumoniae ATCC 13883, pH 5.8 [9] [log10] | Bactericidal activity log10 No /N, Klebsiella pneumoniae ATCC 13883 [9] [log10] | Bactericidal activity log10 No /N, Klebsiella pneumoniae ATCC 13883, "High" ionic strength [9] [log10] | Bactericidal activity log10 No /N, Escherichia coli ATCC 29648 [10] [log10] | Bactericidal activity log10 No /N, Pseudomonas aeruginosa PAO 579, pH 5.8 [11] [log10] | Bactericidal activity log10 No /N, Pseudomonas aeruginosa PAO 579 [11] [log10] | Bactericidal activity log10 No /N, Pseudomonas aeruginosa PAO 579, "High" ionic strength [11] [log10] | Bactericidal activity log10 No /N, Bordetella bronchiseptica UCLA-342 [12] [log10] | also measured |
| --- | --- | --- | --- | --- | --- | --- | --- | --- | --- | --- | --- | --- | --- | --- | --- | --- | --- | --- | --- | --- | --- |
| IFN-α [reference compound] | – | – | – | – | – | – | – | – | – | – | – | – | – | – | – | – | – | – | – | – | decrease in VSV yield (VSV): 6 log10; decrease in HSV-1 yield (HSV-1): 0.6 log10 |
| val val cys ala cys arg arg ala leu cys leu pro arg glu arg arg ala gly phe cys arg ile arg gly arg ile his pro leu cys cys arg arg [NP-1] | 2.3 | > 4.1 | 3.8 | 2.7 | 0.2 | 2.1 | 0.1 | 0.1 | 2.3 | 0.0 | 3.9 | > 1.1 | 0.6 | 3.0 | 0.1 | 1.9 | 0.3 | > 4.2 | 0.1 | 0.1 | % Killing, Ps. aeruginosa (Ps. aeruginosa): A (>99% killing); % Killing, S. albus (S. albus): B (90-99% killing); % Killing, H. influenzae (H. influenzae): A (>99% killing); % Killing, S. aureus 502A (S. aureus 502A): D (<50% killing); % Killing, E. coli (E. coli): B (90-99% killing); % Killing, L. monocytogenes (L. monocytogenes): A (>99% killing); Bactericidal activity log10 No /N, Serratia marcescens (Serratia marcescens): 1.0 log10; Bactericidal activity log10 No /N, Staphylococcus aureus 566 [13]: > 4.1 log10 |
| val ser cys thr cys arg arg phe ser cys gly phe gly glu arg ala ser gly ser cys thr val asn gly val arg his thr leu cys cys arg arg [NP-4] | 0.1 | 0.2 | 4.3 | 0.1 | 0.0 | 0.1 | 0.0 | 0.0 | 0.1 | 0.0 | 0.2 | 1.3 | 0.3 | 0.2 | 0.0 | 0.1 | 0.0 | 0.2 | 0.0 | 0.1 | Bactericidal activity log10 No /N, Serratia marcescens (Serratia marcescens): 1.3 log10; Bactericidal activity log10 No /N, Staphylococcus aureus 566 [13]: 0.2 log10 |
| val phe cys thr cys arg gly phe leu cys gly ser gly glu arg ala ser gly ser cys thr ile asn gly val arg his thr leu cys cys arg [NP-5] | 0.2 | 0.4 | 1.9 | 0.1 | 0.1 | 0.5 | 0.2 | 0.0 | 0.5 | 0.0 | 0.4 | 1.2 | 0.1 | 1.2 | 0.0 | 0.2 | 0.1 | 0.7 | 0.0 | 0.0 | Bactericidal activity log10 No /N, Serratia marcescens (Serratia marcescens): 1.2 log10; Bactericidal activity log10 No /N, Staphylococcus aureus 566 [13]: 0.4 log10 |
| gly arg cys val cys arg lys gln 21eu cys ser tyr arg glu arg arg ile gly asp cys lys ile arg gly val arg phe pro phe cys cys pro arg [NP-3b] | 0.3 | 1.7 | > 3.5 | 0.8 | 0.0 | 4.3 | 0.0 | 0.2 | 0.9 | 0.0 | 1.2 | 0.7 | 0.2 | 3.4 | 0.0 | 1.4 | 0.0 | 4.2 | 0.0 | 0.1 | % Killing, Ps. aeruginosa (Ps. aeruginosa): A (>99% killing); % Killing, S. marscescens (S. marscescens): B (90-99% killing); % Killing, S. albus (S. albus): D (<50% killing); % Killing, S. aureus 502A (S. aureus 502A): D (<50% killing); % Killing, E. coli (E. coli): C (50-90% killing); % Killing, L. monocytogenes (L. monocytogenes): B (90-99% killing); Bactericidal activity log10 No /N, Serratia marcescens (Serratia marcescens): 0.7 log10; Bactericidal activity log10 No /N, Staphylococcus aureus 566 [13]: 1.7 log10 |
